Blank lines part the entries; values can stand above or below the molecule they belong to.
Legend:
acid phosphatase = assay: Cleavage by acid phosphatase; type: biochemical; conditions: phosphate buffer pH 5, 6 and 7.4; room temperature
Procedure: (§1) The above compound was dissolved in a minimum of DMSO and added to acid phosphatase in phosphate buffer solutions at pH 5, 6 and 7.4, respectively at room temperature. Aliquots were taken out at different time points and LC-MS and HPLC used for analysis. LCMS analysis required a small organic extraction of each aliquot in order to remove the protein prior to analysis. Analytical HPLC allowed direct injection and offers high sensitivity and reliability. Caffeine was included as an internal standard. The compound was almost fully hydrolysed at 1 hour.

[1] = tested on: Amano Lipase from Pseudomonas fluorescens; assay: Lipase test of linker X8: cleavage and model drug release; type: biochemical; conditions: for time to full conversion to X10 and X11: 1 mg/mL lipase, room temperature
Procedure: Compound X8 was exposed to lipase in phosphate buffered solutions at pH 6 and 7.4. […] The pH 6 and 7.4 tests were conducted to determine if any difference in the rate of intramolecular lactonisation would be observed. Initial tests involved incubation of the linker (1 mM in 2% DMSO/buffer) with 1 mg/mL lipase (>20 U/mL) at room temperature (FIG. 16). Caffeine was included as an internal standard. Aliquots were taken out at different time points and LC-MS and HPLC used for analysis.

amano lipase = assay: Cleavage by Amano lipase; type: biochemical, Pseudomonas fluorescens; conditions: phosphate buffer pH 5, 6 and 7.4; room temperature
Procedure: as §1, with “amano lipase” for “acid phosphatase”, “5 min.” for “1 hour.”

Helix pomatia Type H-1 = assay: Cleavage by Helix pomatia Type H-1; type: biochemical; conditions: phosphate buffer pH 5, 6 and 7.4; room temperature
Procedure: as §1, with “Helix pomatia Type H-1” for “acid phosphatase”, “5 min.” for “1 hour.”

time at which the compound was almost fully hydrolysed (acid phosphatase): 1 h
Compound: O=C(NCCOP(=O)(O)O)c1ccccc1

non-linear conversion to products, duration ([1]; FIG. 17, conditions not given): 114 min
time to full conversion to X10 and X11 ([1]; pH 6): 60 min
time to full conversion to X10 and X11 ([1]; pH 7.4, linker 1 mM in 2% DMSO/buffer): < 15 min
Compound: CCCCCCCC(=O)OCCN(CC(=O)OCC(=O)c1ccc(Br)cc1)C(=O)c1ccccc1 [Example X8, 2-(N-(2-(2-(4-bromophenyl)-2-oxoethoxy)-2-oxoethyl)benzamido)ethyl octanoate]

time at which the compound was almost fully hydrolysed (amano lipase): 5 min
Compound: CCCCCCCC(=O)OCCNC(=O)c1ccccc1

Compound: O=C(NCCNC(=O)c1ccccc1)OCc1ccc(OS(=O)(=O)O)cc1
time at which the compound was almost fully hydrolysed (Helix pomatia Type H-1): 5 min
